Strand notation (5' to 3'): a small letter for the sugar, then the base; units joined by * are phosphorothioate-linked, units joined directly phosphodiester-linked; [ ] holds rarer units or linkages, { } end groups; capitals alone tell only the bases. e = 2'-O-(2-methoxyethyl) (MOE); k = constrained ethyl (cEt); [5mC] = 5-methylcytosine; d = 2'-deoxy (DNA)
What was measured:
human PKK mRNA [1] = test: Antisense inhibition of human PKK mRNA in HepaRG cells, 1,000 nM, MOE/deoxy/cEt oligonucleotides (Example 3); assay type: cell-based
How it was run: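 Readout is percent PKK mRNA reduction against untreated controls, by real-time PCR (RTS3454) adjusted for total RNA via RIBOGREEN. Oligonucleotides, phosphorothioate gapmers of 16 nucleosides with cEt, MOE and deoxy sugars, were delivered at 1,000 nM by electroporation to 20,000 HepaRG cells/well for roughly 24 h.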

human PKK mRNA [2] = test: Dose-dependent antisense inhibition of human PKK in HepaRG cells, 0.11-3.00 uM (Example 6); assay type: cell-based; conditions: for IC50: 0.11-3.00 μM; for percent inhibition of PKK mRNA, 0.11 μM / percent inhibition of PKK mRNA, 0.33 μM / percent inhibition of PKK mRNA, 1.00 μM / percent inhibition of PKK mRNA, 3.00 μM: electroporation, approx. 16 hours, relative to untreated control cells
Method: Cells were plated at a density of 20,000 cells per well and transfected using electroporation with 0.11 μM, 0.33 μM, 1.00 μM, and 3.00 μM concentrations of antisense oligonucleotide. After a treatment period of approximately 16 hours, RNA was isolated from the cells and PKK mRNA levels were measured by quantitative real-time PCR. Human PKK primer probe set RTS3454 was used to measure mRNA levels. PKK mRNA levels were adjusted according to total RNA content, as measured by RIBOGREEN®. The antisense oligonucleotides were tested in a series of experiments that had similar culture conditions.
The half maximal inhibitory concentration (IC50) of each oligonucleotide is also presented.

[3] = Table 21 experiment, HepaRG cells, electroporation with 1,000 nM antisense oligonucleotide, approx. 24 hours, PKK mRNA by RT-PCR (RTS3454), relative to untreated control cells
[4] = HepaRG cells, 1,000 nM antisense oligonucleotide, Table 29
[5] = HepaRG cells, electroporation with 1,000 nM antisense oligonucleotide, approx. 24 hours, PKK mRNA by RT-PCR (RTS3454), relative to untreated control cells, Table 25 experiment
[6] = HepaRG cells, electroporation with 1,000 nM antisense oligonucleotide, approximately 24 hours, primer probe set RTS3454, relative to untreated control cells, experiment of Table 24
[7] = Table 20, HepaRG cells, electroporation with 1,000 nM antisense oligonucleotide, approximately 24 hours, PKK mRNA by RT-PCR (RTS3454), relative to untreated control cells
[8] = Table 22 experiment, HepaRG cells, electroporation with 1,000 nM antisense oligonucleotide, approx. 24 hours, PKK mRNA by RT-PCR (RTS3454), relative to untreated control cells

| Substance | % inhibition (human PKK mRNA [1]; [3]) [%] | IC50 (human PKK mRNA [2]) [nM] | percent inhibition of PKK mRNA, 0.11 μM (human PKK mRNA [2]) [%] | percent inhibition of PKK mRNA, 0.33 μM (human PKK mRNA [2]) [%] | percent inhibition of PKK mRNA, 1.00 μM (human PKK mRNA [2]) [%] | percent inhibition of PKK mRNA, 3.00 μM (human PKK mRNA [2]) [%] | % inhibition (human PKK mRNA [1]; Table 28, HepaRG cells, 1,000 nM antisense oligonucleotide, human PKK mRNA) [%] | % inhibition (human PKK mRNA [1]; [4]) [%] | % inhibition (human PKK mRNA [1]; HepaRG cells, electroporation with 1,000 nM antisense oligonucleotide, approx. 24 hours, PKK mRNA by RT-PCR (RTS3454), relative to untreated control cells, Table 26 experiment) [%] | % inhibition (human PKK mRNA [1]; [5]) [%] | % inhibition (human PKK mRNA [1]; Table 27, HepaRG cells, 1,000 nM antisense oligonucleotide, human PKK mRNA) [%] | % inhibition (human PKK mRNA [1]; Table 19, HepaRG cells, electroporation with 1,000 nM antisense oligonucleotide, approximately 24 hours, PKK mRNA by RT-PCR (RTS3454), relative to untreated control cells) [%] | % inhibition (human PKK mRNA [1]; [6]) [%] | % inhibition (human PKK mRNA [1]; [7]) [%] | % inhibition (human PKK mRNA [1]; [8]) [%] | % inhibition (human PKK mRNA [1]; PKK mRNA, HepaRG cells, 1,000 nM antisense oligonucleotide, Table 31) [%] |
| --- | --- | --- | --- | --- | --- | --- | --- | --- | --- | --- | --- | --- | --- | --- | --- | --- |
| 547835 (e[5mC]*e[5mC]*kA*dG*dA*dA*dA*d[5mC]*dT*dG*d[5mC]*dA*d[5mC]*k[5mC]*kT*eG; antisense) [compound 547835] | 81 | 900 | 44 | 27 | 53 | 79 |  |  |  |  |  |  |  |  |  |  |
| 548479 (eA*eG*kG*d[5mC]*d[5mC]*dA*dT*dT*dT*dG*dA*dT*d[5mC]*k[5mC]*kG*eA; antisense) [compound 548479] |  | 400 | 2 | 52 | 82 | 97 | 68 |  |  |  |  |  |  |  |  |  |
| 548547 (antisense eG*eT*kG*d[5mC]*dG*dA*dT*dT*dA*dA*dG*d[5mC]*d[5mC]*k[5mC]*k[5mC]*eA) [compound 548547] |  | 400 | 30 | 41 | 76 | 90 |  | 86 |  |  |  |  |  |  |  |  |
| 548247 (antisense e[5mC]*eG*kA*dT*dT*dT*dT*d[5mC]*d[5mC]*dA*dT*dG*d[5mC]*kA*kT*eA) [compound 548247] |  | 500 | 16 | 50 | 62 | 82 |  |  | 56 |  |  |  |  |  |  |  |
| 548220 (eG*e[5mC]*kA*dG*dA*dA*dA*dT*d[5mC]*d[5mC]*dT*dG*dT*kG*k[5mC]*eA; antisense) [compound 548220] |  | > 3000 | 0 | 0 | 0 | 6 |  |  |  | 69 |  |  |  |  |  |  |
| 548343 (antisense eT*eA*kG*dT*dG*dA*dT*dA*dA*dG*dA*dG*d[5mC]*kT*kG*eG) [compound 548343] |  |  | 61 | 67 | 88 | 92 |  |  |  |  | 78 |  |  |  |  |  |
| 548109 (antisense eG*e[5mC]*kA*dT*d[5mC]*dT*dG*dA*dG*d[5mC]*dT*dT*dT*kT*k[5mC]*e[5mC]) [compound 548109] |  |  | 50 | 92 | 79 | 85 |  |  |  |  |  | 77 |  |  |  |  |
| 548174 (eT*e[5mC]*kT*d[5mC]*dA*dG*dT*dT*dG*d[5mC]*dG*dA*d[5mC]*k[5mC]*kT*e[5mC]; antisense) [compound 548174] |  | 2000 | 20 | 18 | 29 | 62 |  |  |  | 68 |  |  |  |  |  |  |
| 548047 (eG*eA*kT*dA*dT*d[5mC]*dA*dT*dG*dA*dT*dT*d[5mC]*k[5mC]*k[5mC]*eT; antisense) [compound 548047] |  |  | 50 | 62 | 76 | 95 |  |  |  |  |  |  | 83 |  |  |  |
| 547849 (antisense eA*eA*kT*dG*dT*d[5mC]*dT*d[5mC]*dG*dA*dT*dG*dG*k[5mC]*kA*eA) [compound 547849] |  | 300 | 36 | 52 | 67 |  |  |  |  |  |  |  |  | 79 | 90 |  |
| 547807 (eG*e[5mC]*kA*dG*dT*dA*dT*dT*dG*dG*dG*d[5mC]*dA*kT*kT*eT; antisense) [compound 547807] | 75 | 400 | 26 | 71 | 61 | 94 |  |  |  |  |  |  |  |  |  |  |
| 548570 (eA*eT*kG*d[5mC]*d[5mC]*dT*dT*dG*dT*dG*d[5mC]*d[5mC]*dT*kA*kT*eT; antisense) [compound 548570] |  | 400 | 20 | 40 | 70 | 94 |  | 74 |  |  |  |  |  |  |  |  |
| 548668 (antisense eG*eG*kG*dA*dG*d[5mC]*dT*dT*dT*d[5mC]*dA*dT*dG*kG*k[5mC]*eT) [compound 548668] |  | 700 | 10 | 30 | 61 | 84 |  |  |  |  |  |  |  |  |  | 68 |
| 548046 (eT*eA*kT*d[5mC]*dA*dT*dG*dA*dT*dT*d[5mC]*d[5mC]*d[5mC]*kT*kT*e[5mC]; antisense) [compound 548046] |  | 700 | 7 | 35 | 64 | 77 |  |  |  |  |  |  | 84 |  |  |  |
| 547808 (e[5mC]*eA*kT*d[5mC]*dT*dG*dG*d[5mC]*dA*dG*dT*dA*dT*kT*kG*eG; antisense) [compound 547808] | 56 | 1100 | 19 | 22 | 48 | 71 |  |  |  |  |  |  |  |  |  |  |
| 547769 (antisense eT*eT*kG*dG*dA*dG*dG*dT*dG*dA*dG*dT*d[5mC]*kT*k[5mC]*eT) [compound 547769] | 81 | 600 | 12 | 17 | 80 | 96 |  |  |  |  |  |  |  |  |  |  |
| 548055 (eG*eT*kA*dA*dT*dT*d[5mC]*dA*dA*dA*dG*dG*dA*kG*k[5mC]*e[5mC]; antisense) [compound 548055] |  | 300 | 43 | 57 | 50 | 88 |  |  |  |  |  |  | 78 |  |  |  |
| 548155 (e[5mC]*eG*kT*dG*d[5mC]*dT*dG*dA*dA*dA*dG*d[5mC]*dG*kG*kG*e[5mC]; antisense) [compound 548155] |  | 300 | 49 | 50 | 70 | 81 |  |  |  | 76 |  |  |  |  |  |  |
| 547877 (antisense eA*eA*k[5mC]*dA*d[5mC]*dT*dG*d[5mC]*dT*dA*dA*d[5mC]*d[5mC]*kT*kT*eA) [compound 547877] |  | 200 | 29 | 66 | 83 |  |  |  |  |  |  |  |  | 81 | 93 |  |

Reference: patent US11840686B2, “Modulation of prekallikrein (PKK) expression” (Ionis Pharmaceuticals, Inc., priority 2013, dated 2023)
